For 8 compounds, TGI results are on record in PubChem BioAssay (NCI).

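Cultured in 96-well plates, cells were exposed to test compound for 48 hours across five concentrations. TGI is the concentration that stops growth completely.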

Some test systems named below: RPMI-8226 leukemia; MOLT-4 leukemia; HT29 colon; HL-60(TB) leukemia; COLO 205 colon; OVCAR-8 ovarian; SF-268 CNS; CAKI-1 renal; U251 CNS; TK-10 renal; SW-620 colon; K-562 leukemia; NCI/ADR-RES ovarian; HS 578T breast; EKVX NSCLC; LOX IMVI melanoma; MDA-MB-435; HCC-2998 colon; SR leukemia; SF-539 CNS.
Common to all, as to assay: inhibition of tumour cell growth, NCI panel, 48 h

Regarding `NC(=O)c1ccc(C(=O)Nc2ccc([As](=O)(O)O)cc2)cc1`, the TGI with RPMI-8226 leukemia, with MOLT-4 leukemia, in the assay with HT29 colon, in the assay on HL-60(TB) leukemia, in the assay on COLO 205 colon and with OVCAR-8 ovarian was greater than 100 µM in each case. Further, the TGI with SF-268 CNS, in the assay on CAKI-1 renal, with U251 CNS, with TK-10 renal, with SW-620 colon and in the assay with K-562 leukemia was greater than 100 µM in each case. Further, the TGI in the assay on NCI/ADR-RES ovarian, with HS 578T breast, in the assay on EKVX NSCLC, in the assay on LOX IMVI melanoma and in the assay on MDA-MB-435 was greater than 100 µM in each case.

With `Cc1c(-c2ccc(O)cc2)n(CCCCCCNCCOC(=O)NCCCc2ccc(N(CCCl)CCCl)cc2)c2ccc(O)cc12`, the TGI in the assay on RPMI-8226 leukemia turned out to be 2.98 µM; in the assay with HCC-2998 colon, 3.52 µM; in the assay on MOLT-4 leukemia, 2.92 µM; in the assay on HT29 colon, 3.09 µM; in the assay with COLO 205 colon, 7.57 µM; in the assay with OVCAR-8 ovarian it was 2.88 µM. Besides, the TGI amounted to 3.45 µM in the assay on SF-268 CNS; 25.7 µM in the assay with CAKI-1 renal; 13.5 µM with U251 CNS; 6.06 µM with TK-10 renal; 5.37 µM in the assay on SW-620 colon; 3.18 µM with SR leukemia. The TGI with HS 578T breast stood at 7.49 µM; with EKVX NSCLC it was 9.89 µM; in the assay on LOX IMVI melanoma it was 2.97 µM; in the assay on SF-539 CNS, 3.11 µM; in the assay with MDA-MB-435, 3.21 µM.

In the case of `CN1Cc2ccccc2S(=O)(=O)n2cccc2C1=O`, the TGI in the assay with RPMI-8226 leukemia, with MOLT-4 leukemia, in the assay on HL-60(TB) leukemia, in the assay on COLO 205 colon, with CAKI-1 renal and in the assay with U251 CNS was greater than 100 µM each time. Further, the TGI in the assay with TK-10 renal, with SW-620 colon, in the assay with SR leukemia, in the assay with K-562 leukemia, in the assay on HS 578T breast and with EKVX NSCLC was greater than 100 µM each time. For the same compound, the TGI with LOX IMVI melanoma, in the assay on SF-539 CNS and with MDA-MB-435 was greater than 100 µM in each case.

As to `COc1c2c(cc3c1C(=O)c1c(O)cccc1C3=O)CC(O)CC2` (stereo unspecified), the TGI in the assay with HCC-2998 colon, in the assay on MOLT-4 leukemia, with HT29 colon, in the assay on HL-60(TB) leukemia, with COLO 205 colon and in the assay on OVCAR-8 ovarian was greater than 100 µM throughout. Further, the TGI with CAKI-1 renal, with U251 CNS, with TK-10 renal, in the assay on SW-620 colon, with K-562 leukemia and in the assay on NCI/ADR-RES ovarian was greater than 100 µM throughout. Moreover, the TGI in the assay on HS 578T breast is 74.1 µM; with EKVX NSCLC it was greater than 100 µM; in the assay with LOX IMVI melanoma, greater than 100 µM; in the assay on SF-539 CNS, greater than 100 µM; with MDA-MB-435, greater than 100 µM.

Turning to `c1ccc(C(C2=Nc3cccc4cccc(c34)N2)c2ccccc2)cc1`, the TGI was greater than 100 µM in the assay with RPMI-8226 leukemia; 37.8 µM in the assay with HCC-2998 colon; 60.1 µM in the assay with HT29 colon; greater than 100 µM with HL-60(TB) leukemia; 36.7 µM in the assay with COLO 205 colon; greater than 100 µM in the assay with OVCAR-8 ovarian. The TGI in the assay on SF-268 CNS is 66.1 µM; in the assay on CAKI-1 renal, greater than 100 µM; in the assay with U251 CNS, 35.3 µM; in the assay on TK-10 renal, greater than 100 µM; in the assay on SW-620 colon, greater than 100 µM; in the assay with K-562 leukemia, 81.7 µM. The TGI is 50.5 µM in the assay on NCI/ADR-RES ovarian; 81.8 µM in the assay with HS 578T breast; 80.7 µM in the assay on EKVX NSCLC; 37.3 µM in the assay on LOX IMVI melanoma; 34.2 µM in the assay with SF-539 CNS; 66.1 µM in the assay on MDA-MB-435.

In the case of `O=C(C1OC1c1ccc(Cl)cc1)C12CC3CC(CC(C3)C1)C2` (stereo unspecified), the TGI in the assay on HCC-2998 colon is 35.4 µM; in the assay with MOLT-4 leukemia it was 51.9 µM; with HT29 colon, 41.9 µM; with HL-60(TB) leukemia it was 42.6 µM; in the assay with COLO 205 colon, 35.7 µM; with OVCAR-8 ovarian, 32.9 µM. Moreover, the TGI in the assay on SF-268 CNS is 53 µM; in the assay on CAKI-1 renal, 67.5 µM; in the assay with U251 CNS it was 29.2 µM; in the assay with TK-10 renal, greater than 100 µM; in the assay with SW-620 colon, 44.6 µM; in the assay on K-562 leukemia it was 51.2 µM. Besides, the TGI is 49 µM in the assay on NCI/ADR-RES ovarian; 73.9 µM with HS 578T breast; 56.3 µM in the assay on EKVX NSCLC; 16.6 µM in the assay with LOX IMVI melanoma; 32.5 µM in the assay on SF-539 CNS; 33.1 µM in the assay with MDA-MB-435.

For the compound `O=[N+]([O-])c1cccc2nc3ccccc3c(NCCCCNc3c4ccccc4nc4cccc([N+](=O)[O-])c34)c12`, the TGI was 0.164 µM in the assay with HCC-2998 colon; 0.0887 µM in the assay with MOLT-4 leukemia; 0.0366 µM with HT29 colon; 0.0246 µM in the assay on HL-60(TB) leukemia; 0.173 µM with COLO 205 colon; 1.09 µM in the assay on OVCAR-8 ovarian. In addition, the TGI in the assay with SF-268 CNS was 0.189 µM; in the assay with CAKI-1 renal, 0.168 µM; in the assay on U251 CNS, 0.187 µM; in the assay on TK-10 renal, 0.0304 µM; with SW-620 colon, 0.174 µM; in the assay on NCI/ADR-RES ovarian it was 2.71 µM. The TGI with HS 578T breast was 0.935 µM; in the assay with EKVX NSCLC, 2.11 µM; in the assay with LOX IMVI melanoma, 0.258 µM; in the assay on SF-539 CNS, 0.102 µM.

Turning to `NC1c2c(Br)sc(N3CCCC3)c2C(=O)C1O` (stereo unspecified), the TGI in the assay on HCC-2998 colon, in the assay on MOLT-4 leukemia, in the assay on HT29 colon, in the assay with HL-60(TB) leukemia, with COLO 205 colon and with OVCAR-8 ovarian was greater than 50 µM in each case. For the same compound, the TGI in the assay on SF-268 CNS, in the assay on CAKI-1 renal, in the assay with U251 CNS, with TK-10 renal, in the assay with SW-620 colon and with K-562 leukemia was greater than 50 µM each time. Besides, the TGI with NCI/ADR-RES ovarian, with HS 578T breast, with EKVX NSCLC, in the assay on LOX IMVI melanoma, in the assay with SF-539 CNS and in the assay on MDA-MB-435 was greater than 50 µM in each case.
